The values below come from ChEMBL document CHEMBL4368877, “Discovery of potent pyruvate dehydrogenase kinase inhibitors and evaluation of their anti-lung cancer activity under hypoxia” (Medchemcomm, 2018).

Molecules are shown by their SMILES. Calls of active or inactive are those of the source. The calls are words filed in the database; no cut-off is given here.

Data set [1] has as its target Pyruvate dehydrogenase kinase (Homo sapiens) (UniProt Q15119+Q15120+Q16654+Q15118). Briefly: Inhibition of PDK in human NCI-H1975 cells assessed as reduction in PDC phosphorylation at 10 uM measured after 12 hrs under hypoxic condition by Western blot analysis. The data set is classed as cell-based.
Data set [2] concerns the target [Pyruvate dehydrogenase (acetyl-transferring)] kinase isozyme 2, mitochondrial (Homo sapiens, UniProt Q15119). Briefly: Inhibition of PDK2 (unknown origin) using PDC E1 as substrate measured after 30 mins by kinase-glo assay.
The subject of data set [3] is NCI-H1975. Nature of the data set: Cytotoxicity against human NCI-H1975 cells assessed as reduction in cell proliferation at 1 to 10 uM after 72 hrs under normoxic condition by MTT assay. The data set is classed as cell-based. Conditions: nci-h1975, 72 h.
Data set [4] deals with [Pyruvate dehydrogenase (acetyl-transferring)] kinase isozyme 3, mitochondrial (Homo sapiens, UniProt Q15120). Briefly: Inhibition of PDK3 (unknown origin) using PDC E1 as substrate measured after 30 mins by kinase-glo assay.
[Pyruvate dehydrogenase (acetyl-transferring)] kinase isozyme 3, mitochondrial, sequence (Q15120 whole entry): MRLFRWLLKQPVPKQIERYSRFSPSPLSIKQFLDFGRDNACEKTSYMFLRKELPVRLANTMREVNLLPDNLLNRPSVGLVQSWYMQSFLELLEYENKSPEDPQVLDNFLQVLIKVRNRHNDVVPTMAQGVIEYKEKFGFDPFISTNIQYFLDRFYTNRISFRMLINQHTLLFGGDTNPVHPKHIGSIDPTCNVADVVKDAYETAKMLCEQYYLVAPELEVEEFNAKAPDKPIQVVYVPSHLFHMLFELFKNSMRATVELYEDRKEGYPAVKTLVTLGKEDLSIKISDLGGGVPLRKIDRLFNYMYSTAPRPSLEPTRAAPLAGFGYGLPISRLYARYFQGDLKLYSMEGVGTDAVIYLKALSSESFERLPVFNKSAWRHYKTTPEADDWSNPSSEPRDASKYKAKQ
For data set [5], the target named is [Pyruvate dehydrogenase (acetyl-transferring)] kinase isozyme 4, mitochondrial (Homo sapiens, UniProt Q16654). Nature of the data set: Inhibition of PDK4 (unknown origin) using PDC E1 as substrate measured after 30 mins by kinase-glo assay.
[Pyruvate dehydrogenase (acetyl-transferring)] kinase isozyme 4, mitochondrial, sequence (Q16654 whole entry): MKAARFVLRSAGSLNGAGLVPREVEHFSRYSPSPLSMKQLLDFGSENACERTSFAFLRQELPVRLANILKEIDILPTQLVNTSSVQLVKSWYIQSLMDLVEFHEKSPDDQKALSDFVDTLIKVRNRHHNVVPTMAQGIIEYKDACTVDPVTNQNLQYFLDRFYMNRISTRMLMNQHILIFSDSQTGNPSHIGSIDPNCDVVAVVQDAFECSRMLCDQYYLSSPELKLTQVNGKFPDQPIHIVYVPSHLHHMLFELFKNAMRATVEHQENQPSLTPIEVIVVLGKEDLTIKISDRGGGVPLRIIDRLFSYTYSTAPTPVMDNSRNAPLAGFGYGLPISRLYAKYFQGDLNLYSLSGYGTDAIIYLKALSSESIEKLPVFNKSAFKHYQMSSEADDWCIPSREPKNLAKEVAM
Data set [6] concerns the target [Pyruvate dehydrogenase (acetyl-transferring)] kinase isozyme 1, mitochondrial (Homo sapiens, UniProt Q15118). Briefly: Inhibition of PDK1 (unknown origin) using PDC E1 as substrate measured after 30 mins by kinase-glo assay.
Data set [7] has as its system NCI-H1975. Nature of the data set: Cytotoxicity against human NCI-H1975 cells assessed as reduction in cell proliferation after 72 hrs under hypoxic condition by MTT assay. Particulars: NCI-H1975, 72 h.

[Pyruvate dehydrogenase (acetyl-transferring)] kinase isozyme 1, mitochondrial, sequence (Q15118 whole entry): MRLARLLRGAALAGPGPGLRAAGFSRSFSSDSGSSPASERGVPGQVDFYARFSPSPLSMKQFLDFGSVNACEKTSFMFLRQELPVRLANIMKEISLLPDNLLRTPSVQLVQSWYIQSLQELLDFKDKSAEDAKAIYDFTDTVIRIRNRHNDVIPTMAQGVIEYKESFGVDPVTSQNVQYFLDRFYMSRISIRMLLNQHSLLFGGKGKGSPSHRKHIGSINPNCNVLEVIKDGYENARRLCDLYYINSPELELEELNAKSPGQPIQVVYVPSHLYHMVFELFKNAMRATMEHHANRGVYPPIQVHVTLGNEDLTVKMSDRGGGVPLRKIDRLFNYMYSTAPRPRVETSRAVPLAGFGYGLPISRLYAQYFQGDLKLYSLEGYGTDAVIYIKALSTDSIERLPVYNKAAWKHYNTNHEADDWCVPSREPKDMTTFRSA

For the molecule `O=C(c1ccccc1)C(Cl)Cl`, the inhibition result in data set [1] is “Active”.

On to `O=C(NCc1ccccc1-n1cccn1)c1cc(-c2ccccc2O)n[nH]1`, for which the IC50 in data set [2] was determined as 2.6 µM; in data set [4] it was 4.8 µM; in data set [5] it was 8.7 µM; in data set [6], 0.62 µM. In addition, in the data set on NCI-H1975 [3], the Activity entry was “Non-Toxic”. Besides, the EC50 in the data set on NCI-H1975 [7] amounted to 4.28 µM.

Take `Cc1cnc(Cl)nc1-c1ccc(N(Cc2ccc(CNC(=O)C(F)F)cc2)C(=O)c2ccc(O)cc2O)cc1`: in the data set on NCI-H1975 [3], the Activity entry is listed as “Non-Toxic”.

Regarding `CN(C)CCCn1ccnc1[C@H]1CCCN(C(=O)c2ccc3cc[nH]c3c2)C1`, the IC50 amounted to 2.5 µM in data set [2], 7.8 µM in data set [4], 12.3 µM in data set [5] and 1.26 µM in data set [6]. The Activity result in the data set on NCI-H1975 [3] is given as “Non-Toxic”.

For `OCCOc1ccc(CN2CCN(Cc3ccc(F)c(F)c3)[C@@H](CCO)C2)cc1`, the IC50 in data set [2] is 1.5 µM; in data set [4], 3.9 µM; in data set [5] it was 6.8 µM. Further, the Activity entry with NCI-H1975 [3] is “Non-Toxic”.
